Measured values from BindingDB's records for patent US20250214942 (University ff Texas System, 2025).

Biological target: T1, Receptor-interacting serine/threonine-protein kinase 1 (Homo sapiens, UniProt Q13546)
T1 sequence (Q13546 whole entry): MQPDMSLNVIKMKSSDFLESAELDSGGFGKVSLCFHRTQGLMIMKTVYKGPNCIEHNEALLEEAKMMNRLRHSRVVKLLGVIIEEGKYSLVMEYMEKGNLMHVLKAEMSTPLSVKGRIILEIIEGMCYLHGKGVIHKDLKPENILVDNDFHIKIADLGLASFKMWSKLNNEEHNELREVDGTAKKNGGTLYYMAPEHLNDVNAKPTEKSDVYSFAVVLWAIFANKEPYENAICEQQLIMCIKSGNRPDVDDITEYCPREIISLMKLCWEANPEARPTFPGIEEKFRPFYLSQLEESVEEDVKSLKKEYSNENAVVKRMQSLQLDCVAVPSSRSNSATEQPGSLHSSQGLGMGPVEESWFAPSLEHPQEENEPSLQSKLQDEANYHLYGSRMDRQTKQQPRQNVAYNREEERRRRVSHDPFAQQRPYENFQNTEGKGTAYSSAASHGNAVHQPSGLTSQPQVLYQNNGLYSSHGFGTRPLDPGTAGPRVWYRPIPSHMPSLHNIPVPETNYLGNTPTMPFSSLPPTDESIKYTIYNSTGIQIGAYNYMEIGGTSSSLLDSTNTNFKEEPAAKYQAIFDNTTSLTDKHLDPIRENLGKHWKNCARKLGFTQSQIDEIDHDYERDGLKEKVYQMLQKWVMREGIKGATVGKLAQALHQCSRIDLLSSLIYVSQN
Assay: ADP-Glo Kinase Assay
Experimental: In order to measure RIPK1 activity the ADP-Glo kinase assay (Promega, Catalog #V7002) was used to measure the conversion of ATP to ADP. […] Stock solutions of the test compounds were prepared in 100% DMSO (Sigma, Catalog #D2650) and serially diluted 1:3 using 100% DMSO. Compounds were additionally diluted 1:40 in assay buffer, and 2 μL/well were transferred to the assay plate. 4 μL/well (final concentration of 5 nM) of RIPK1 protein (SignalChem, Catalog #R07-1IG-05) diluted in assay buffer and added to the assay plate followed by a 10 minute preincutation at rt. 4 μL/well of ATP (Promega, Catalog #V7002) (final concentration of 50 μM) diluted in assay buffer were then added to the assay plate followed by a 6 h reaction time. Final concentrations of RIPK1 and ATP refer to a 10 μL volume. Luminescence was measured using a BioTek Synergy™ NEO plate reader. IC50 values were calculated using a four-parameter logistic curve fit using Genedata Screener software.

- IC50: 80 nM
SMILES: O=C(N1N=CCC1c1cc(F)cc(F)c1)C12CC(Cn3ncc4ncccc43)(C1)C2 (stereo unspecified) [US20250214942, Example 148]
